BindingDB's records for doi:10.1021/jm981008a (1998)

Columns and labels:
[1] = target: Sodium-dependent noradrenaline transporter (Homo sapiens, UniProt P23975); test: The compound was tested in vitro for binding affinity for the norepinephrine transporter (NET) using competitive binding assay.
[2] = target: Sodium-dependent serotonin transporter (Homo sapiens, UniProt P31645); test: The compound was tested in vitro for binding affinity for the serotonin transporter (5-HTT) using competitive binding assay.
[3] = target: T1, Sodium-dependent dopamine transporter (Homo sapiens, UniProt Q01959); test: The compound was tested in vitro for low binding affinity for the Dopamine transporter (DAT) using competitive binding assay.
[4] = target: T1, Sodium-dependent dopamine transporter; test: The compound was tested in vitro for high binding affinity for the Dopamine transporter (DAT) using competitive binding assay.

T1 sequence (Q01959 whole entry): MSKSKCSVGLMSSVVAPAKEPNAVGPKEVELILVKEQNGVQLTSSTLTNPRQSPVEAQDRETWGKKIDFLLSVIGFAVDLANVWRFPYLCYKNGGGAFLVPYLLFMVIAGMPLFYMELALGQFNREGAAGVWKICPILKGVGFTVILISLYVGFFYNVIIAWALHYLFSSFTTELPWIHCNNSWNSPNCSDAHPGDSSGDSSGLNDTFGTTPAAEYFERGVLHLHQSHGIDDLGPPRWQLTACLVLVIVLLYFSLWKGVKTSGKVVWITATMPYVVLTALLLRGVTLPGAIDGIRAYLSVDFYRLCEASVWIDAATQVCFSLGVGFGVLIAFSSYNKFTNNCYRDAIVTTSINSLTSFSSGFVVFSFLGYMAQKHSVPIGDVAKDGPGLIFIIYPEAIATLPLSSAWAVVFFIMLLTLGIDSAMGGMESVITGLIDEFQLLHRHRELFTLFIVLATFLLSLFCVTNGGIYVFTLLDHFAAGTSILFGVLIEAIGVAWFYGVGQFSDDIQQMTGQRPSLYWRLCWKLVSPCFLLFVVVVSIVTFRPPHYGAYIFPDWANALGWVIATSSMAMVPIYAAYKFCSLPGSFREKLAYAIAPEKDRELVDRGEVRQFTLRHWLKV
Sequence of Sodium-dependent noradrenaline transporter (P23975 whole entry): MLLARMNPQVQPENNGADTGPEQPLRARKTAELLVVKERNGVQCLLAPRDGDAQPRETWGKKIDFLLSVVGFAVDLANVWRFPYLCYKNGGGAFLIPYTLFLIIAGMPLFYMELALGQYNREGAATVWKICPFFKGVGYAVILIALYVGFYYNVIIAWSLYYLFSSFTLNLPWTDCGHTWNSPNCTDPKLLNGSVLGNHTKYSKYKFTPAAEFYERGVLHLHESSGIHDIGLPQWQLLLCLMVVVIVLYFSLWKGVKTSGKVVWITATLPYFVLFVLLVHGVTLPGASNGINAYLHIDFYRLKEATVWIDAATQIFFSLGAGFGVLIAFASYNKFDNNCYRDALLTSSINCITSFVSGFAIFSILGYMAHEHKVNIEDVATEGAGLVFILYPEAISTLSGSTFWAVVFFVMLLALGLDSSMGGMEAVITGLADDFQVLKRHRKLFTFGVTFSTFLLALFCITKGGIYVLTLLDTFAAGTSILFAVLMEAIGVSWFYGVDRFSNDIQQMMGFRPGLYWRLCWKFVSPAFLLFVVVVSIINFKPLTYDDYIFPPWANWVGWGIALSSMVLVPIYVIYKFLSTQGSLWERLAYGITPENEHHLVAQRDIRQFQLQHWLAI
Sequence of Sodium-dependent serotonin transporter (P31645 whole entry): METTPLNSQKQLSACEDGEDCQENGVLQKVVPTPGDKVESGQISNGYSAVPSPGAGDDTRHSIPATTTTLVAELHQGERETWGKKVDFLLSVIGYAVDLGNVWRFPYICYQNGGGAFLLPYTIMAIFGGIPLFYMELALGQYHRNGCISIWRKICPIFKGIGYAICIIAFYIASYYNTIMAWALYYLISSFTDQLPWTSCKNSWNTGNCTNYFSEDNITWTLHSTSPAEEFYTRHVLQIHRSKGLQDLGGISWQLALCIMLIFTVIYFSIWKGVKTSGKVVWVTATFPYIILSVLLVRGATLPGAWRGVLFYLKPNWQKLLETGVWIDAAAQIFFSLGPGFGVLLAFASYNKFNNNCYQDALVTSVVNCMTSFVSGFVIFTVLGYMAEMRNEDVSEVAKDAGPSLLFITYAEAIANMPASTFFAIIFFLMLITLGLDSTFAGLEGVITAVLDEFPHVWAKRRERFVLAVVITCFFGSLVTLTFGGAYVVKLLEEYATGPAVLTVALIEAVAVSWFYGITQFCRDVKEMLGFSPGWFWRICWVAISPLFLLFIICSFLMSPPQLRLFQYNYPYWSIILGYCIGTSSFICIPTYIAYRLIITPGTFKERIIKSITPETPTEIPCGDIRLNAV

Q: For CN1C2CCC1[C@@H](COC(=O)CC[S+]1CC[S+](C)[Re]1([Br])([CH]=O)([CH]=O)[CH]=O)[C@@H](c1ccc(F)cc1)C2 (some centres undefined) [Rhenium complex of 3-(2-Bromo-2,2,2-triformyl-3-methyl-1lambda*4*,2lambda*6*,3lambda*4*-[1,2,3]dithiolan-1-yl)-propionic acid 3-(4-fluoro-phenyl)-8-methyl-8-aza-bicyclo[3.2.1]oct-2-ylmethyl ester], which IC50 [1] is on record?
A: 7.3 nM

Q: And the IC50 [2]?
A: 72 nM

Q: What about the IC50 [3] of the same compound?
A: 20 nM

Q: And the IC50 [4]?
A: 0.146 nM
